Laboratory results published in US6737383B1, “Herbicidal oxadiazolidines” (priority 1999, dated 2004).

Columns and labels:
[1] = tested on: Alexandergrass; assay: Test D Alexandergrass; assay type: in vivo, Brachiaria plantaginea; settings: Preemergence, 0 to 100 scale
Summary of the method: (§1)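 Scoring used a 0–100 visual injury scale, with 0 meaning no effect and 100 complete control, assessed 14–21 days after application alongside untreated pots. Preemergence treatments went onto sandy loam surfaces of separately potted seeds within a day of sowing.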

[2] = tested on: bermuda-grass; assay: Test D bermudagrass; assay type: in vivo, Cynodon dactylon; settings: Preemergence, 0 to 100 scale
Summary of the method: as §1

[3] = tested on: common groundsel; assay: Test D common groundsel; assay type: in vivo, Senecio vulgaris; settings: Preemergence, 0 to 100 scale
Summary of the method: as §1

[4] = tested on: dallisgrass; assay: Test D dallisgrass; assay type: in vivo, Paspalum dilatatum; settings: Preemergence, 0 to 100 scale
Summary of the method: as §1

[5] = tested on: goosegrass; assay: Test D goosegrass; assay type: in vivo, Eleusine indica; settings: Preemergence, 0 to 100 scale
Summary of the method: as §1

[6] = tested on: guineagrass; assay: Test D guineagrass; assay type: in vivo, Panicum maximum; settings: Preemergence, 0 to 100 scale
Summary of the method: as §1

[7] = tested on: itchgrass; assay: Test D itchgrass; assay type: in vivo, Rottboellia exaltata; settings: Preemergence, 0 to 100 scale
Summary of the method: as §1

[8] = tested on: Johnson grass; assay: Test D Johnson grass; assay type: in vivo, Sorghum halepense; settings: Preemergence, 0 to 100 scale
Summary of the method: as §1

[9] = tested on: large crabgrass; assay: Test D large crabgrass; assay type: in vivo, Digitaria sanguinalis; settings: Preemergence, 0 to 100 scale
Summary of the method: as §1

[10] = tested on: pitted morningglory; assay: Test D pitted morningglory; assay type: in vivo, Ipomoea lacunosa; settings: Preemergence, 0 to 100 scale
Summary of the method: as §1

[11] = tested on: purple nutsedge; assay: Test D purple nutsedge; assay type: in vivo, Cyperus rotundus; settings: Preemergence, 0 to 100 scale
Summary of the method: as §1

[12] = tested on: sandbur; assay: Test D sandbur; assay type: in vivo, Cenchrus echinatus; settings: Preemergence, 0 to 100 scale
Summary of the method: as §1

[13] = tested on: Spanishneedles; assay: Test D Spanishneedles; assay type: in vivo, Bidens bipinnata; settings: Preemergence, 0 to 100 scale
Summary of the method: as §1

[14] = tested on: surinam grass; assay: Test D surinam grass; assay type: in vivo, Brachiaria decumbens; settings: Preemergence, 0 to 100 scale
Summary of the method: as §1

[15] = tested on: tall mallow; assay: Test D tall mallow; assay type: in vivo, Malva sylvestris; settings: Preemergence, 0 to 100 scale
Summary of the method: as §1

[16] = tested on: Green foxtail; assay: Test D green foxtail; assay type: in vivo; settings: Preemergence, 0 to 100 scale
Summary of the method: as §1

[17] = tested on: Green foxtail; assay: Test D green foxtail; assay type: in vivo
Summary of the method: as §1

[18] = Rate 16 g/ha, 0 no injury, 100 complete control
[19] = Rate 32 g/ha, 0 no injury, 100 complete control
[20] = Rate 64 g/ha, 0 no injury, 100 complete control
[21] = Rate 125 g/ha, 0 no injury, 100 complete control
[22] = Rate 64 g/ha, Preemergence; 0 to 100 scale, 0 no injury, 100 complete control
[23] = Rate 125 g/ha, Preemergence; 0 to 100 scale, 0 no injury, 100 complete control

C=CCn1c(=O)on(C(=O)N(c2ccc(F)cc2F)C(C)C)c1=O [Compound 151]
100: Plant response rating, Alexandergrass ([1]; Rate 250 g/ha) | Plant response rating, Alexandergrass ([1]; Rate 500 g/ha) | Plant response rating, Bermudagrass [2, 21] | Plant response rating, Bermudagrass ([2]; Rate 250 g/ha) | Plant response rating, Bermudagrass ([2]; Rate 500 g/ha) | Plant response rating, Com. groundsel [3, 21] | Plant response rating, Com. groundsel ([3]; Rate 250 g/ha) | Plant response rating, Com. groundsel ([3]; Rate 500 g/ha) | Plant response rating, Dallisgrass [4, 18] | Plant response rating, Dallisgrass [4, 20] | Plant response rating, Dallisgrass [4, 21] | Plant response rating, Dallisgrass ([4]; Rate 250 g/ha) | Plant response rating, Dallisgrass ([4]; Rate 500 g/ha) | Plant response rating, Goosegrass [5, 20] | Plant response rating, Goosegrass [5, 21] | Plant response rating, Goosegrass ([5]; Rate 250 g/ha) | Plant response rating, Goosegrass ([5]; Rate 500 g/ha) | Plant response rating, Guineagrass [6, 20] | Plant response rating, Guineagrass [6, 21] | Plant response rating, Guineagrass ([6]; Rate 250 g/ha) | Plant response rating, Guineagrass ([6]; Rate 500 g/ha) | Plant response rating, Itchgrass ([7]; Rate 250 g/ha) | Plant response rating, Itchgrass ([7]; Rate 500 g/ha) | Plant response rating Johnsongrass ([8]; Rate 500 g/ha) | Plant response rating Large crabgrass [9, 20] | Plant response rating Large crabgrass [9, 21] | Plant response rating Large crabgrass ([9]; Rate 250 g/ha) | Plant response rating Large crabgrass ([9]; Rate 500 g/ha) | Sandbur plant response rating [12, 21] | Plant response rating, Sandbur ([12]; Rate 250 g/ha) | Plant response rating, Sandbur ([12]; Rate 500 g/ha) | Surinam grass plant response rating [14, 21] | Plant response rating, Surinam grass ([14]; Rate 250 g/ha) | Plant response rating, Surinam grass ([14]; Rate 500 g/ha) | Plant response rating, Green foxtail ([16]; Rate 250 g/ha) | Plant response rating, Green foxtail ([16]; Rate 500 g/ha) | Plant response rating, Green foxtail ([17]; Preemergence; Rate 16 g/ha; 0 to 100 scale, 0 no injury, 100 complete control) | Plant response rating, Green foxtail ([17]; Preemergence; Rate 32 g/ha; 0 to 100 scale, 0 no injury, 100 complete control) | Plant response rating, Green foxtail ([17]; Rate 16 g/ha; Preemergence; 0 to 100 scale, 0 no injury, 100 complete control) | Green foxtail plant response rating [17, 22] | Plant response rating, Green foxtail [17, 22] | Green foxtail plant response rating [17, 23] | Plant response rating, Green foxtail [17, 23] | Plant response rating, Green foxtail ([17]; Rate 250 g/ha; Preemergence; 0 to 100 scale) | Plant response rating, Green foxtail ([17]; Rate 500 g/ha, Preemergence; 0 to 100 scale)
65: Plant response rating, Purple nutsedge ([11]; Rate 250 g/ha)
20: Plant response rating, P. morninglory ([10]; Rate 500 g/ha) | Plant response rating, Sandbur [12, 19]
50: Plant response rating Johnsongrass [8, 21] | Plant response rating Johnsongrass ([8]; Rate 250 g/ha)
70: Plant response rating, Purple nutsedge ([11]; Rate 500 g/ha)
0: Plant response rating, Com. groundsel [3, 18] | Plant response rating, Com. groundsel [3, 19] | Plant response rating, Com. groundsel [3, 20] | Plant response rating, Itchgrass [7, 18] | Plant response rating, Itchgrass [7, 19] | Plant response rating Johnsongrass [8, 18] | Plant response rating Johnsongrass [8, 19] | Plant response rating, P. morninglory [10, 18] | Plant response rating, P. morninglory [10, 19] | Plant response rating, P. morninglory [10, 20] | Plant response rating, P. morninglory [10, 21] | Plant response rating, P. morninglory ([10]; Rate 250 g/ha) | Plant response rating, Purple nutsedge [11, 18] | Plant response rating, Purple nutsedge [11, 19] | Purple nutsedge plant response rating [11, 20] | Plant response rating, Sandbur [12, 18] | Plant response rating, Spanishneedles [13, 18] | Plant response rating, Spanishneedles [13, 19] | Spanishneedles plant response rating [13, 20] | Spanishneedles plant response rating [13, 21] | Plant response rating, Spanishneedles ([13]; Rate 250 g/ha) | Plant response rating, Tall Mallow [15, 18] | Plant response rating, Tall Mallow [15, 19] | Tall Mallow plant response rating [15, 20]
90: Plant response rating, Bermudagrass [2, 18] | Plant response rating, Bermudagrass [2, 19] | Plant response rating, Bermudagrass [2, 20] | Plant response rating, Guineagrass [6, 19] | Sandbur plant response rating [12, 20]
85: Plant response rating, Dallisgrass [4, 19] | Plant response rating, Goosegrass [5, 18] | Plant response rating, Goosegrass [5, 19] | Plant response rating, Guineagrass [6, 18] | Plant response rating, Itchgrass [7, 21] | Surinam grass plant response rating [14, 20] | Plant response rating, Tall Mallow ([15]; Rate 250 g/ha) | Plant response rating, Tall Mallow ([15]; Rate 500 g/ha)
98: Plant response rating, Alexandergrass [1, 20] | Plant response rating, Alexandergrass [1, 21] | Plant response rating Large crabgrass [9, 18] | Plant response rating Large crabgrass [9, 19]
30: Purple nutsedge plant response rating [11, 21] | Plant response rating, Surinam grass [14, 18] | Plant response rating, Surinam grass [14, 19]
75: Plant response rating, Itchgrass [7, 20] | Tall Mallow plant response rating [15, 21] | Plant response rating, Green foxtail ([17]; Rate 32 g/ha; Preemergence; 0 to 100 scale, 0 no injury, 100 complete control)
40: Plant response rating, Alexandergrass [1, 18] | Plant response rating, Alexandergrass [1, 19] | Plant response rating Johnsongrass [8, 20] | Plant response rating, Spanishneedles ([13]; Rate 500 g/ha)
